Legend:
Assay in all cases: KINOMEscan competition binding
ZAK = ZAK (Homo sapiens, UniProt Q9NYL2); conditions: read-out: Percent Control
Experimental: (§1) KINOMEscan™ is based on a competition binding assay that quantitatively measures the ability of a compound to compete with an immobilized, active-site directed ligand (Fabian et al. (2005) Nat. Biotechnol. 23, 329; Karaman et al. (2008) Nat. Biotechnol. 26, 127). The compound was screened at 10 μM, and results for primary screen binding interactions are reported as ‘% Ctrl’, where lower numbers indicate stronger hits. The results for kinases targets with a % Ctrl less than 30 can be seen in Table 2.

[1] = molecular target: T1, JAK3(JH1domain-catalytic) (Homo sapiens, UniProt P52333); conditions: read-out: Percent Control
T1 construct: JAK3(JH1domain-catalytic)
Experimental: as §1

FLT3(D835Y) = molecular target: T2, FLT3(D835Y) (Homo sapiens, UniProt P36888, D835Y); conditions: read-out: Percent Control
T2 construct: purchased KINOMEscan (screening service)
Experimental: as §1

WNK3 = molecular target: T3, WNK3 (Homo sapiens, UniProt Q9BYP7); conditions: read-out: Percent Control
T3 construct: purchased KINOMEscan (screening service)
Experimental: as §1

TRKB = molecular target: T4, TRKB (Homo sapiens, UniProt Q16620); conditions: TRKB (Entrez NTRK2), read-out: Percent Control
T4 construct: purchased KINOMEscan (screening service)
Experimental: as §1

FLT3(K663Q) = FLT3(K663Q) (Homo sapiens, UniProt P36888, K663Q); conditions: read-out: Percent Control
Experimental: as §1

[2] = molecular target: ABL1(F317I)-nonphosphorylated (Homo sapiens, UniProt P00519, F317I); conditions: read-out: Percent Control
Experimental: as §1

[3] = molecular target: EGFR(L747-E749del, A750P) (Homo sapiens, UniProt P00533, A750P/DEL747-749); conditions: read-out: Percent Control
Experimental: as §1

TEC = TEC (Homo sapiens, UniProt P42680); conditions: read-out: Percent Control
Experimental: as §1

CDC2L1 = molecular target: T5, CDC2L1 (Homo sapiens, UniProt P21127); conditions: CDC2L1 (Entrez CDK11B), read-out: Percent Control
T5 construct: purchased KINOMEscan (screening service)
Experimental: as §1

RET(M918T) = RET(M918T) (Homo sapiens, UniProt P07949, M918T); conditions: read-out: Percent Control
Experimental: as §1

FLT3(D835H) = FLT3(D835H) (Homo sapiens, UniProt P36888, D835H); conditions: read-out: Percent Control
Experimental: as §1

EPHA1 = EPHA1 (Homo sapiens, UniProt P21709); conditions: read-out: Percent Control
Experimental: as §1

EPHA7 = EPHA7 (Homo sapiens, UniProt Q15375); conditions: read-out: Percent Control
Experimental: as §1

RIPK1 = molecular target: T6, RIPK1 (Homo sapiens, UniProt Q13546); conditions: read-out: Percent Control
T6 construct: purchased KINOMEscan (screening platform)
Experimental: as §1

STK36 = STK36 (Homo sapiens, UniProt Q9NRP7); conditions: read-out: Percent Control
Experimental: as §1

LYN = molecular target: T7, LYN (Homo sapiens, UniProt P07948); conditions: read-out: Percent Control
T7 construct: purchased KINOMEscan (panel service)
Experimental: as §1

FGFR4 = molecular target: T8, FGFR4 (Homo sapiens, UniProt P22455); conditions: read-out: Percent Control
T8 construct: purchased KINOMEscan (screening platform)
Experimental: as §1

CIT = molecular target: T9, CIT (Homo sapiens, UniProt O14578); conditions: read-out: Percent Control
T9 construct: purchased KINOMEscan (panel service)
Experimental: as §1

[4] = molecular target: T10, RSK4(Kin.Dom.2-C-terminal) (Homo sapiens, UniProt Q9UK32); conditions: RSK4(Kin.Dom.2-C-terminal) (Entrez RPS6KA6), read-out: Percent Control
T10 construct: RSK4(Kin.Dom.2-C-terminal)
Experimental: as §1

EPHA8 = molecular target: T11, EPHA8 (Homo sapiens, UniProt P29322); conditions: read-out: Percent Control
T11 construct: purchased KINOMEscan (panel service)
Experimental: as §1

DDR2 = molecular target: T12, DDR2 (Homo sapiens, UniProt Q16832); conditions: read-out: Percent Control
T12 construct: purchased KINOMEscan (screening service)
Experimental: as §1

KIT(V559D, T670I) = KIT(V559D, T670I) (Homo sapiens, UniProt P10721, T670I/V559D); conditions: read-out: Percent Control
Experimental: as §1

IKK-alpha = IKK-alpha (Homo sapiens, UniProt O15111); conditions: IKK-alpha (Entrez CHUK), read-out: Percent Control
Experimental: as §1

ABL2 = molecular target: T13, ABL2 (Homo sapiens, UniProt P42684); conditions: read-out: Percent Control
T13 construct: purchased KINOMEscan (panel service)
Experimental: as §1

LCK = molecular target: T14, LCK (Homo sapiens, UniProt P06239); conditions: read-out: Percent Control
T14 construct: purchased KINOMEscan (panel service)
Experimental: as §1

[5] = molecular target: ABL1(M351T)-phosphorylated (Homo sapiens, UniProt P00519, M351T); conditions: read-out: Percent Control
Experimental: as §1

GCN2(Kin.Dom.2, S808G) = molecular target: T15, GCN2(Kin.Dom.2, S808G) (Homo sapiens, UniProt Q9P2K8, S808G); conditions: GCN2(Kin.Dom.2, S808G) (Entrez EIF2AK4), read-out: Percent Control
T15 construct: GCN2(Kin.Dom.2, S808G)
Experimental: as §1

SIK2 = molecular target: T16, SIK2 (Homo sapiens, UniProt Q9H0K1); conditions: read-out: Percent Control
T16 construct: purchased KINOMEscan (screening service)
Experimental: as §1

RIPK2 = RIPK2 (Homo sapiens, UniProt O43353); conditions: read-out: Percent Control
Experimental: as §1

EPHB2 = EPHB2 (Homo sapiens, UniProt P29323); conditions: read-out: Percent Control
Experimental: as §1

[6] = molecular target: EGFR(L747-S752del, P753S) (Homo sapiens, UniProt P00533, DEL747-752/P753S); conditions: read-out: Percent Control
Experimental: as §1

DRAK1 = molecular target: T17, DRAK1 (Homo sapiens, UniProt Q9UEE5); conditions: DRAK1 (Entrez STK17A), read-out: Percent Control
T17 construct: purchased KINOMEscan (screening platform)
Experimental: as §1

KIT(D816V) = molecular target: T18, KIT(D816V) (Homo sapiens, UniProt P10721, D816V); conditions: read-out: Percent Control
T18 construct: purchased KINOMEscan (panel service)
Experimental: as §1

T13 sequence (P42684 whole entry): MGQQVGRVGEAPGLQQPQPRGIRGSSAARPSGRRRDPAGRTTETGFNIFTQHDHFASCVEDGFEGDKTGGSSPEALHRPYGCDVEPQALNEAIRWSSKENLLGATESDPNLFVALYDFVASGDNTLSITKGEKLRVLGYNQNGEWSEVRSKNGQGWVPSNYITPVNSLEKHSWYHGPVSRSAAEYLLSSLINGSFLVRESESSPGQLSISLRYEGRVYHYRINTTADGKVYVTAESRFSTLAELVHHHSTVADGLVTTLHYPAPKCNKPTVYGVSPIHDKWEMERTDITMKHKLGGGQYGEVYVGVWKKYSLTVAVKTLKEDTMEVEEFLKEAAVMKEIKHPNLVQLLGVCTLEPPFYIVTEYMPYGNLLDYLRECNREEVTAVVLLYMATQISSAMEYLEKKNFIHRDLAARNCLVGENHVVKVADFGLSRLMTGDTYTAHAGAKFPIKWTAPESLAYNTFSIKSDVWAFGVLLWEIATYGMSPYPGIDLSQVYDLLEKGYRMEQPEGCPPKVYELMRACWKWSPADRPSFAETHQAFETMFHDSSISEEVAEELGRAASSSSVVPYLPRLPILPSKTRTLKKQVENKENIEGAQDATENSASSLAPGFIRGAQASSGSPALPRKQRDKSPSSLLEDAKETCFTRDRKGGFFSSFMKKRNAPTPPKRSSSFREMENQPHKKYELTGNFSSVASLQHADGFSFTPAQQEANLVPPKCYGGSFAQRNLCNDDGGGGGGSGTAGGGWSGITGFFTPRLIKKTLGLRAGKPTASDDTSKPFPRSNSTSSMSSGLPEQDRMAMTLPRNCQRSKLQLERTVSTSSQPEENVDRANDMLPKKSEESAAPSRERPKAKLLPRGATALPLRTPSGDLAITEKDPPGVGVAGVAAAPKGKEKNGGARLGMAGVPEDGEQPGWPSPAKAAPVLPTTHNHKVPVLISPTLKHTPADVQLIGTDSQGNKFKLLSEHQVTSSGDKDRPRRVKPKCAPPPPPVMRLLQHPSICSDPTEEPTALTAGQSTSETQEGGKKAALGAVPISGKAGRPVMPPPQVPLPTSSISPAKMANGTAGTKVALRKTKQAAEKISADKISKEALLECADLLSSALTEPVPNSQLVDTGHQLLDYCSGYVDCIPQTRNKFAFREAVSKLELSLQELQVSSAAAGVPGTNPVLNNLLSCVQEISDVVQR
T15 sequence (Q9P2K8 590-1001 S808G limits assumed): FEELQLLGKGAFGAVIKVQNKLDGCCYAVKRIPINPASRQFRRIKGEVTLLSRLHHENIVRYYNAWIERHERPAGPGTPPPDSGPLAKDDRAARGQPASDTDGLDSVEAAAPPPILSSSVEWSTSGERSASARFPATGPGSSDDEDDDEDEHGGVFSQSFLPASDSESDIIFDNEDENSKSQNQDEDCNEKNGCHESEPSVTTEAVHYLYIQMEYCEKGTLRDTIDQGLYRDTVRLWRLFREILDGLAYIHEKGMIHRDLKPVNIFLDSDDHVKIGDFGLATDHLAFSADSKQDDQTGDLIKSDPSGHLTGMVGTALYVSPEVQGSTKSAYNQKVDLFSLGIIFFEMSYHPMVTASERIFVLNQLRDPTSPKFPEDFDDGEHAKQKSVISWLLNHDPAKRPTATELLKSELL
EGFR(L747-E749del, A750P), sequence (P00533 with tags, fused parts or gaps DEL747-749/A750P): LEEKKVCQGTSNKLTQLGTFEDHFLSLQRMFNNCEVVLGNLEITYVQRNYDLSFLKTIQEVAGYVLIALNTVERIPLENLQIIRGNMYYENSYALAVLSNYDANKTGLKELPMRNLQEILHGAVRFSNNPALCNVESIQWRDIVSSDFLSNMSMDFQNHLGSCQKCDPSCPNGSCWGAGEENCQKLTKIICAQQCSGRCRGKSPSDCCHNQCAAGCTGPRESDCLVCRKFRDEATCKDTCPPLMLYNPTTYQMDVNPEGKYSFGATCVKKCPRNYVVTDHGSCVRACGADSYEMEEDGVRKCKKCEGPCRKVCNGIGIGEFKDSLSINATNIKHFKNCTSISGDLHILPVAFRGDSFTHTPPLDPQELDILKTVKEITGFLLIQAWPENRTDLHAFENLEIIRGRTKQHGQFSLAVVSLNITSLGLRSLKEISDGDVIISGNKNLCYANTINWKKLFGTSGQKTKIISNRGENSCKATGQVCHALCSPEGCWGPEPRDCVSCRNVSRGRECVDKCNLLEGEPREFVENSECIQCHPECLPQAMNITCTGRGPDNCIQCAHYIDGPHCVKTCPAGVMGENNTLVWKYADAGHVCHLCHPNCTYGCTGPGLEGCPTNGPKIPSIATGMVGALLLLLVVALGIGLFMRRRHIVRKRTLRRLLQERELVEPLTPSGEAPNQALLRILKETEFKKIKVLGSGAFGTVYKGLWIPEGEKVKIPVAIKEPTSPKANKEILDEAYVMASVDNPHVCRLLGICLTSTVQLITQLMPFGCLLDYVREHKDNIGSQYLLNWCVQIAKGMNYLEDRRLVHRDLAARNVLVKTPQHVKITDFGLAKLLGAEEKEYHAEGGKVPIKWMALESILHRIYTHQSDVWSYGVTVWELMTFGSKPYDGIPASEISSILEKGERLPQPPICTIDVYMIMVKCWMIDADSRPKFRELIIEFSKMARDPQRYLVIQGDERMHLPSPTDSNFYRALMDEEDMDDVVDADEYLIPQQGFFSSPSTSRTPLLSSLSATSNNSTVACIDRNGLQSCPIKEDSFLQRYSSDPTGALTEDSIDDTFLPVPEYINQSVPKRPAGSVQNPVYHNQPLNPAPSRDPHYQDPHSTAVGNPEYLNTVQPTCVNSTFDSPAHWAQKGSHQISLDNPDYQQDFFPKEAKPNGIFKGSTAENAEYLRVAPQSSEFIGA
STK36, sequence (Q9NRP7 whole entry): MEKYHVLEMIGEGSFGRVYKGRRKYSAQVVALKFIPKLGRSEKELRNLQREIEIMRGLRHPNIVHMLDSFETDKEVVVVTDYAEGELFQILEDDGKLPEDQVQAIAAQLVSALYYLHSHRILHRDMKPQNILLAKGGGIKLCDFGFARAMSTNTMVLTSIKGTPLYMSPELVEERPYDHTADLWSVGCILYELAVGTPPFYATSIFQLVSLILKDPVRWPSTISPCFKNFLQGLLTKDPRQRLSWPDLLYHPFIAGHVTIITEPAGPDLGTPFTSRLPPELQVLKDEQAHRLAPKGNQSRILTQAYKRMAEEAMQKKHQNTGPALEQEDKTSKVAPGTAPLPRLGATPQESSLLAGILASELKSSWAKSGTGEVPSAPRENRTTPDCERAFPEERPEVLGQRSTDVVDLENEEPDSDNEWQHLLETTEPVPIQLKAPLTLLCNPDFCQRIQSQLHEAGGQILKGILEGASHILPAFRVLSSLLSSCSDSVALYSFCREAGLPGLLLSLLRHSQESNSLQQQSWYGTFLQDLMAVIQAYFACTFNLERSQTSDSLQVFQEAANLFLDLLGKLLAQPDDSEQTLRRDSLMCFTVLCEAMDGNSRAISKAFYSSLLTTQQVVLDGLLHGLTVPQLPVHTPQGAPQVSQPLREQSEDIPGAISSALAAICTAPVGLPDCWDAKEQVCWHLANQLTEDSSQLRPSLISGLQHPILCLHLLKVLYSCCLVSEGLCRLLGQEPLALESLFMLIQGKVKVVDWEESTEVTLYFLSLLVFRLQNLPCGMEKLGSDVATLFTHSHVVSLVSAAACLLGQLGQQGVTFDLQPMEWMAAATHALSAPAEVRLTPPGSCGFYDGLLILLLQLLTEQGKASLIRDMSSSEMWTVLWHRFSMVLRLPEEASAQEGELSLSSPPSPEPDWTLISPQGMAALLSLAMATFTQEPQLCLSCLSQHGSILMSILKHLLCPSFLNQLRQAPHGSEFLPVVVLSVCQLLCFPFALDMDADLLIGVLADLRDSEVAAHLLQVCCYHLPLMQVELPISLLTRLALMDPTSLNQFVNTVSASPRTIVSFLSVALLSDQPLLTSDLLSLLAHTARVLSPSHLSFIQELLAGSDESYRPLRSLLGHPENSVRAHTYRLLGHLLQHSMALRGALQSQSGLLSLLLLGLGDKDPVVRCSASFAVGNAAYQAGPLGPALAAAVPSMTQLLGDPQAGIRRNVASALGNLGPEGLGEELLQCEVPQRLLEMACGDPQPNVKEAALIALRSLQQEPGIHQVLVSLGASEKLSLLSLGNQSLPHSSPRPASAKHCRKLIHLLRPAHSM
TEC, sequence (P42680 whole entry): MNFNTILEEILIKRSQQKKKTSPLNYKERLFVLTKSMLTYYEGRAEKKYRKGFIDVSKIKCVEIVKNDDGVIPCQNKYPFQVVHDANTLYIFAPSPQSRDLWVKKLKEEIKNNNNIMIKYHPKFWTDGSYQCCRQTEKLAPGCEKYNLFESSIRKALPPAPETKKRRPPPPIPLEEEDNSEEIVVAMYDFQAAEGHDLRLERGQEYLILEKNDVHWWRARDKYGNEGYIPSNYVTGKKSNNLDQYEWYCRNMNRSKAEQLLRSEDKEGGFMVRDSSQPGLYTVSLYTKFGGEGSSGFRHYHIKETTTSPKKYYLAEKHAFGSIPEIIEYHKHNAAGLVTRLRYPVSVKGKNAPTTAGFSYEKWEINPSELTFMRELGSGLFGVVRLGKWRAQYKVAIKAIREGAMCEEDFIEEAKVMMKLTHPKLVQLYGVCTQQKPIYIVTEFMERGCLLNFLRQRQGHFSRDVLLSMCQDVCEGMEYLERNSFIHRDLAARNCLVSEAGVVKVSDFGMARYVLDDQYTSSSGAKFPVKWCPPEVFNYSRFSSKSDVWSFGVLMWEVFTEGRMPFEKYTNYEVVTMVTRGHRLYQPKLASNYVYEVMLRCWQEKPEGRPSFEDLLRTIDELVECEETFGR
T10 sequence (Q9UK32 426-683 limits assumed): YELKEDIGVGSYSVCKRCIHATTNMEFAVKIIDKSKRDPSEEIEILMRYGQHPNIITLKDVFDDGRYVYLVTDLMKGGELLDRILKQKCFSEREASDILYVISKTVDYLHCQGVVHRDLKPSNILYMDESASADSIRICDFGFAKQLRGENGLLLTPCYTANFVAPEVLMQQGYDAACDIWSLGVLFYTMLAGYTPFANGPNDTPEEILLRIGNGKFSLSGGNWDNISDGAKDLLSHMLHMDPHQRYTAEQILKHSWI

Cc1ccc(Nc2ncc3c(n2)N(C)CN(c2cc(NC(=O)c4cccc(C(F)(F)F)c4)ccc2C)C3)cn1 [IA-9, N-(4-methyl-3-(1-methyl-7-((6-methylpyridin-3-yl)amino)-1,4-dihydropyrimido[4,5-d]pyrimidin-3(2H)-yl)phenyl)-3-(trifluoromethyl)benzamide]
remaining binding at 10 µM (ZAK): 0.55%
remaining binding at 10 µM [1]: 5%
remaining binding at 10 µM (FLT3(D835Y)): 9%
remaining binding at 10 µM (WNK3): 18%
remaining binding at 10 µM (TRKB): 10%
remaining binding at 10 µM (FLT3(K663Q)): 0.55%
remaining binding at 10 µM [2]: 0%
remaining binding at 10 µM [3]: 0%
remaining binding at 10 µM (TEC): 0.55%
remaining binding at 10 µM (CDC2L1): 15%
remaining binding at 10 µM (RET(M918T)): 0%
remaining binding at 10 µM (FLT3(D835H)): 3.2%
remaining binding at 10 µM (EPHA1): 0.35%
remaining binding at 10 µM (EPHA7): 0.55%
remaining binding at 10 µM (RIPK1): 28%
remaining binding at 10 µM (STK36): 1.6%
remaining binding at 10 µM (LYN): 0.1%
remaining binding at 10 µM (FGFR4): 25%
remaining binding at 10 µM (CIT): 0.1%
remaining binding at 10 µM [4]: 2.6%
remaining binding at 10 µM (EPHA8): 0.15%
remaining binding at 10 µM (DDR2): 9.1%
remaining binding at 10 µM (KIT(V559D, T670I)): 0.3%
remaining binding at 10 µM (IKK-alpha): 1%
remaining binding at 10 µM (ABL2): 0.1%
remaining binding at 10 µM (LCK): 0.15%
remaining binding at 10 µM [5]: 1.2%
remaining binding at 10 µM (GCN2(Kin.Dom.2, S808G)): 1.3%
remaining binding at 10 µM (SIK2): 21%
remaining binding at 10 µM (RIPK2): 6%
remaining binding at 10 µM (EPHB2): 0%
remaining binding at 10 µM [6]: 0%
remaining binding at 10 µM (DRAK1): 22%
remaining binding at 10 µM (KIT(D816V)): 0.05%
